From patent publication US20130172345A1, “1-ACYL-4-(PHENOXY, BENZYLOXY, OR PHENYLAMINO)-1,2,3,4-TETRAHYDROQUINOLINE DERIVATIVES” (KOWA COMPANY, LTD., priority 2007, published 2013)

What was measured:
[1] = tested on: K562 cells, human proerythroblast cells; assay: Hemoglobin production in K562 cells (fluorescence of the porphyrin ring); assay type: cell-based; conditions: 144 h, test compound 6 μM, 3+3 days, non-stimulated state = 100%, read-out: production amount of hemoglobin, % of control (6 μM)
Method in brief: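 K562 cells at 1×10^5 cells/mL in RPMI-1640 with 10% FBS, exposed to compound 3 days, medium exchanged, then 3 more days at 37 °C, 5% CO2. Hemoglobin from 3×10^5 cells measured as porphyrin fluorescence after boiling 30 min in 2 M oxalic acid; expressed as % of untreated control.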

[2] = tested on: HepG2 cells originating from human liver cancer; assay: EPO production in HepG2 cells (EPO ELISA of culture supernatant, 4% oxygen, 48 hrs); assay type: cell-based; conditions: test compound 3 μM, oxygen 4%, non-stimulated state = 100%, read-out: EPO production amount, % of control (3 μM)
Method in brief: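 HepG2 cells in phenol red-free DMEM with 10% fetal serum treated with compound at final 3 μM or 10 μM, 48 h at 4% oxygen. Supernatant EPO by ELISA, expressed as % of untreated control.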

Structure (SMILES) | activity at 6 µM [1] [%] | activity at 3 µM [2] [%]
CCOC(=O)Cc1ccc(NC2CC(C)N(C(C)=O)c3ccc(F)cc32)cc1 (stereo not drawn) [Compound 122, 1-acetyl-4-[(4-ethoxycarbonylmethylphenyl)amino]-6-fluoro-2-methyl-1,2,3,4-tetrahydroquinoline] | 213 | 139
CC(=O)N1c2ccc(F)cc2C(Nc2ccc(CC(N)=O)cc2)CC1C (stereo not drawn) [Compound 124, 1-acetyl-4-[(4-carbamoylmethylphenyl)amino]-6-fluoro-2-methyl-1,2,3,4-tetrahydroquinoline] | 119 | 147
CC(=O)N1c2ccc(F)cc2C(Nc2ccc(CC(=O)N(C)C)cc2)CC1C (stereo not drawn) [Compound 125, 1-acetyl-4-[4-(N,N-dimethylaminocarbonylmethyl)phenylamino]-6-fluoro-2-methyl-1,2,3,4-tetrahydroquinoline] | 118 | 148
